Laboratory results as given in US8697639B2, “Compositions and methods for treating bacteria” (Biosynexus Incorporated, priority 2005, dated 2014).
Bridge positions count the residues as written; N and C are the ends. Square brackets hold non-standard residues; d marks the D form. Peptide text beside a SMILES is read from it. * marks the point of attachment. Ileψ(thiazoline)Cys = CC[C@H](C)[C@H](N)C1=N[C@H](C(=O)*)CS1; dOrn = NCCC[C@@H](N)C(=O)O

Key:
[1] = tested on: S. aureus; assay: Mouse skin infection model: S. aureus infection in abraded mouse skin treated with topical ointment; format: in vivo; settings: for synergy with mupirocin in the skin infection model (in words): combination with mupirocin; for synergy with mupirocin in the skin infection model (in words) / synergy or additive effect with nisin in the skin infection model (in words): superficial wound model; for synergy or additive effect with nisin in the skin infection model (in words): combination with nisin
Procedure: (§1) Mouse Skin Infection Model: An overnight culture of S. aureus grown in tryptic soy broth (SA8; range from 1 to 6×10^9 CFUs/mL) was centrifuged at 4000×g for 10 minutes and resuspended in an equal volume of phosphate buffered saline (PBS). The bacteria were diluted to a percent transmittance of 40 (Spectronic 20D+) and diluted a subsequent 1:1000 in PBS for a final bacteria concentration of about 3×10^5. SKH1 (hrhr) hairless mice (Charles River) were sedated with 0.2 mL of ketamine (80 mg/kg) and xylazine (32 mg/kg) delivered intraperitoneally. The upper back of the mice were scrubbed with a 70% alcohol wipe and allowed to dry. Fine abrasions were made on the backs of the mice between the shoulders using 150 grit sandpaper. Bacteria were swabbed over the abraded area with a sterile, cotton-tipped applicator until the area was saturated with the solution.
Topical Ointment: 74 g of PEG 400 and 24 g of PEG 3350 were added to a 250 mL glass beaker and heated until all of the PEG 3350 was melted. […] Lysostaphin was first dissolved to a concentration of about 150 mg/mL in DI water before mixing into the ointment to give a final concentration of 2% (w/w).
Treatment of Infected Skin with Topical Ointment: Treatments aimed to eradicate S. aureus skin infections in the mouse model were started on the morning after infection (Day 1). […] The mice were sacrificed by CO2 asphyxiation on the morning of Day 3 and a 0.5-cm^2 patch of skin around the infected area was excised. The skin sample was disected and placed into a test tube containing 1 mL of 5 mg/mL proteinase K, 20 mg/mL esterase, and 20 mg/mL activated charcoal in PBS to neutralize the activity of the antibacterial agents. Bacteria were dislodged from the skin sample by sonication: 2 minute treatments per sample with alternating 5 seconds at 3 W and 5 seconds at 0 W in a Virsonic 600 with microtip (VirTis). After mixing by vortex, 50 μL of each sample was streaked onto blood agar plates, incubated at 37° C. overnight, and the colonies were counted and compared to untreated controls.
For the following data, except where noted in FIG. 2, all antibiotic formulations were in a common polyethylene glycol (PEG) ointment (PEG 400 plus PEG 3350).

[2] = tested on: S. aureus strain resistant to mupirocin; assay: Mupirocin-resistant S. aureus infection in abraded mouse skin; format: in vivo; settings: FIG. 3
Procedure: as §1
Topical Ointment: 74 g of PEG 400 and 24 g of PEG 3350 were added to a 250 mL glass beaker and heated until all of the PEG 3350 was melted. […]
Treatment of Infected Skin with Topical Ointment: Treatments aimed to eradicate S. aureus skin infections in the mouse model were started on the morning after infection (Day 1). […] After mixing by vortex, 50 μL of each sample was streaked onto blood agar plates, incubated at 37° C. overnight, and the colonies were counted and compared to untreated controls.

[3] = tested on: P. aeruginosa; assay: P. aeruginosa infection in abraded mouse skin; format: in vivo; settings: FIG. 4
[4] = tested on: Staphylococcus aureus ATCC #6538; assay: Pig partial thickness wounds inoculated with Staphylococcus aureus; format: in vivo
[5] = tested on: S. aureus; assay: In vitro MIC of nisin alone or in combination (log reduction of viable S. aureus); format: cell-based; settings: FIG. 11
Procedure: In order to determine if nisin could function in a synergistic way with other antimicrobials to treat (e.g., kill and/or inhibit growth of) bacteria in vitro, the minimum inhibitory concentration (MIC) of nisin alone or nisin in combination with either mupirocin, neomycin or gentamicin were tested. The MIC was determined by calculating the log reduction of viable S. aureus following incubation with the amounts of nisin and other antimicrobials as indicated in FIG. 11.

[6] = tested on: S. aureus; assay: Suture skin infection model (deep tissue infection) in mouse; format: in vivo; settings: deep cut, FIG. 13
Procedure: It was determined whether nisin and mupirocin, either alone or in combination with each other, would be able to treat S. aureus in a deep tissue infection model. A suture skin infection model was generated in which a deep cut (e.g., one needing sutures to close) was made in a mouse and S. aureus introduced into the incision. […] Thus, a combination of nisin and mupirocin can be used to treat a deep tissue infection as well as a […] infection.

[7] = tested on: P. aeruginosa; settings: previously shown; cited from earlier work

Row | Compound | synergy with mupirocin in the skin infection model (in words) [1] | synergy with nisin in vitro (in words) [5] | synergy or additive effect with nisin in the skin infection model (in words) [1] | further results
1 | CC[C@H](C)[C@H](N)C1=N[C@H](C(=O)N[C@@H](CC(C)C)C(=O)N[C@H](CCC(=O)O)C(=O)N[C@H](C(=O)N[C@H]2CCCCNC(=O)[C@H](CC(N)=O)NC(=O)[C@@H](CC(=O)O)NC(=O)[C@H](Cc3cnc[nH]3)NC(=O)[C@@H](Cc3ccccc3)NC(=O)[C@H]([C@@H](C)CC)NC(=O)[C@@H](CCCN)NC2=O)[C@@H](C)CC)CS1 [bacitracin] ({Ileψ(thiazoline)Cys}-L[dE]IK[dOrn]I[dF]H[dD]N; lactam 4-C) | did not synergize | – | – | –
2 | C/C(=C\C(=O)OCCCCCCCCC(=O)O)C[C@@H]1OC[C@H](C[C@@H]2O[C@H]2[C@@H](C)[C@H](C)O)[C@@H](O)[C@H]1O [mupirocin] | – | does not synergize | – | decrease of infectious CFUs ([1]; abraded mouse skin, PEG ointment 3 times a day on Days 1 and 2, FIG. 1, for combinations: residual infections): 3 logs; activity against mupirocin-resistant S. aureus (in words) [2]: minimal activity; activity relative to nisin formulation (in words) [3]: does not add any additional activity; Staphylococcus aureus recovered from wounds ([4]; Day 7 post treatment, FIG. 8): 1.63 Log cfu/ml; Staphylococcus aureus recovered from wounds ([4]; two days after initial treatment, treated twice per day, FIG. 6): 4.96±0.8 Log CFU/ml; efficacy in treating S. aureus in suture infection model (in words) [6]: very little efficacy; activity against P. aeruginosa (in words) [7]: poor activity
3 | gallidermin | did synergize | – | did not synergize | –
4 | gentamicin | – | does not synergize | did synergize | –
5 | neomycin | – | does not synergize | did not synergize | –
